Results on 10 molecules are retold here after PubChem BioAssay AID1963831 (Molecular Pharmacology Branch, DTP, NCI, 2024).

Values joined by “and” are separate entries in the source; they are usually repeats but may differ in a detail not shown here. Equal entries are not always repeated. Where only a bound is given, the exact number is not on record here.

The assay concerns 889142-216-R-J1-PDC complex spheroid viability. Description: Anticancer human tumor 889142-216-R-J1-PDC patient-derived bladder carcinoma cell line growth inhibition [POLQ]. Particulars: for viability, T/C: stronger effect = lower value; for IC50: curve of compound. The procedure:
Multicellular complex tumor spheroid response to Polymerase (POL) inhibitors (novobiocin, ART-558, RP6685) in combination with a variety of drugs and investigational agents in selected tumor cell lines
The POL inhibitors (novobiocin, ART-558, and RP6685) were evaluated both individually and in combination with standard of care and investigational anticancer small molecules within a complex spheroid model of solid tumors. . Complex spheroids include a stromal component modeled by human endothelial cells (HUVEC) and fibroblasts modeled by human mesenchymal stem cells (MSCs). The concentration ranges selected for each drug and investigational agent were based upon clinically achievable concentrations if the clinical Cmax of the agent was known.
Compounds. The drugs and investigational agents: novobiocin (NSC847541), ART-558 (NSC835418), RP-6685 (NSC848927), peposertib (NSC802822), ceralasertib (NSC780249), elimusertib (NSC800525), camonsertib (NSC841442), AZD-1390 (NSC803789), olaparib (NSC753686), talazoparib (NSC767125), rucaparib (NSC756644), sotorasib (NSC818433), MRTX-1133 (NSC836407), SN-38 (NSC673596), topotecan (NSC609699), epotoside (NSC141540), doxorubicin (NSC123127), gemcitabine (NSC613327), 5-fluorouracil (NSC19893), paclitaxel (NSC125973), vemurafenib (NSC761431), MSA-2 (NSC828583), SN-011 (NSC837082), adavosertib (NSC754352), prexasertib (NSC758257), carboplatin (NSC241240) and oxaliplatin (NSC266046), were obtained from the National Cancer Institute (NCI) Developmental Therapeutics Program Chemical Repository (21). The FDA-approved anticancer drug set is available from the Developmental Therapeutics Program at https://dtp.cancer.gov/organization/dscb/obtaining/. […] The stock solutions were prepared in dimethyl sulfoxide (DMSO, Sigma-Aldrich, St. Louis, MO, cat. D2650), except for the platinum compounds which were prepared in saline (Quality Biological, Gaithersburg, MD, cat. 114-055-101), at 800-fold the tested concentration and stored at -70 degrees C prior to their use. All drugs and investigational agents were tested over a range starting from a high concentration at or near the clinical Cmax and decreasing in half-log increments. If the clinical Cmax for an agent had not been determined, the highest concentration tested was 10 microM, except for SN-38, which was tested at a high concentration of 1 microM.
Cell Culture. All cells were maintained in an incubator at 37 degrees C and 5% CO2 with 95% humidity. The PDC lines were cultured according to standard operating procedures established by the NCI PDMR (https://pdmr.cancer.gov). Table 3 of the manuscript, lists the cell lines along with the number of the three cell types plated to form the mct-spheroids and media for tumor cell growth. After thawing, all PDC lines, except 997537-175-T-J1-PDC and 415267-285-R-J2-PDC, were cultured in Matrigel-coated flasks prepared with a working solution of 1X Ham's F-12 nutrient mix, without supplementation (Thermo Fisher Scientific, cat. 11765054), 100 U/mL penicillin-streptomycin (Thermo Fisher Scientific, cat. 15140122), and 2.5% Matrigel (Corning Inc., Corning, NY, cat. 354248) for the first three passages. The two PDC lines 997537-175-T-J1-PDC and 415267-285-R-J2-PDC were cultured on uncoated flasks. The 857933-349-R-J2-PDC line was cultured in 6C/Colon 1B media containing advanced DMEM/F-12 (Thermo Fisher Scientific, cat. 12634028), 10 mM HEPES (Thermo Fisher Scientific, cat. 15630080), 1X GlutaMAX supplement (Thermo Fisher Scientific, cat. 35050061), 0.1 mg/mL primocin (InvivoGen, San Diego, CA, cat. ant-pm-2), 10% defined fetal bovine serum, heat inactivated (HyClone Laboratories Inc., Logan, UT, cat. SH30070.03HI), 50% L-WRN conditioned media (ATCC, cat. CRL-3276), 1.25 mM N-Acetyl-L-cysteine (Sigma-Aldrich, cat. A9165), 10 mM nicotinamide (Sigma-Aldrich, cat. N0636), 1X B-27 supplement (Thermo Fisher Scientific, cat. 17504044), 1X N-2 supplement (Thermo Fisher Scientific, cat. […]
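Note: spheroids exposed to compounds for seven days.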

As to `C=CC(=O)N1CCN(c2nc(=O)n(-c3c(C)ccnc3C(C)C)c3nc(-c4c(O)cccc4F)c(F)cc23)C(C)C1` (centres undefined), the IC50 (in general, the concentration that gives 50% inhibition) was more than 10000 nM. In addition, the viability, T/C (as a rule, the ratio of treated to control) (compound 0.0316 µM) is 85.5% and 87.6% and 108%. The viability, T/C (compound 0.1 µM) is 90.5% and 106% and 83.7%. In addition, the viability, T/C (compound 0.316 µM) is 123% and 117% and 93.5%. Besides, where the note is “compound 1 µM”, the viability, T/C is 92.1% and 126% and 116%. For the same molecule, the viability, T/C (compound 3.16 µM) is 150% and 108% and 109%. Besides, the viability, T/C (compound 10 µM) was 106% and 105% and 97.8%.

Regarding `C=CCn1c(=O)c2cnc(Nc3ccc(N4CCN(C)CC4)cc3)nc2n1-c1cccc(C(C)(C)O)n1`, the IC50 was more than 1000 nM. The viability, T/C (compound 0.00316 µM) was 97.5% and 109% and 88.1%. For the same molecule, where the note is “compound 0.01 µM”, the viability, T/C was 87.6% and 92.1% and 104%. For the same molecule, where the note is “compound 0.0316 µM”, the viability, T/C is 97.2% and 110% and 104%. Also, for the setting “compound 0.1 µM”, the viability, T/C is 80.1% and 100% and 88.6%. For the same molecule, the viability, T/C (compound 0.316 µM) was 57.7% and 70.7% and 79.8%. The viability, T/C (compound 1 µM) is 54.2% and 67% and 62.5%.

With `CC(=O)O[C@H]1C(=O)[C@@]2(C)[C@H]([C@H](OC(=O)c3ccccc3)[C@]3(O)C[C@H](OC(=O)[C@H](O)[C@@H](NC(=O)c4ccccc4)c4ccccc4)C(C)=C1C3(C)C)[C@]1(OC(C)=O)CO[C@@H]1C[C@@H]2O`, the viability, T/C runs as follows: (compound 0.00949 µM) 51.9% and 53.3% and 40.6%; (compound 0.03 µM) 51% and 60.1% and 33.6%; (compound 0.0949 µM) 54.7% and 51.5% and 37.1%; (compound 0.3 µM) 52.4% and 50.6% and 36.6%; (compound 0.949 µM) 43.7% and 49.6% and 35.6%; (compound 3 µM) 49.5% and 56.1% and 39%.

For the molecule `CC(C)n1c(=O)n(C)c2cnc3cc(F)c(-c4ccc(OCCCN5CCCCC5)nc4)cc3c21`, the IC50 is 3190 nM and > 10000 nM and 7640 nM. In addition, the viability, T/C (compound 0.0316 µM) is 78.6% and 82.9% and 98.3%. The viability, T/C (compound 0.1 µM) was 101% and 92.7% and 85.2%. In addition, the viability, T/C (compound 0.316 µM) was 67.3% and 87% and 77.9%. Moreover, the viability, T/C (compound 1 µM) was 63.5% and 85.9% and 71.9%. Besides, the viability, T/C (compound 3.16 µM) is 56.2% and 77.5% and 64.2%. For the same molecule, the viability, T/C (compound 10 µM) is 17.9% and 67.2% and 43.8%.

With `CC1COCCN1c1cc(-c2ccnn2C)c2ccnc(-c3ccn[nH]3)c2n1` (centres undefined), the IC50 is 206 nM and 182 nM and 308 nM. Besides, the viability, T/C (compound 0.0316 µM) is 69.8% and 79.1% and 76.9%. For the same molecule, the viability, T/C (compound 0.1 µM) was 54.8% and 52.9% and 67.8%. In addition, the viability, T/C (compound 0.316 µM) is 47% and 40.5% and 47.4%. For the same molecule, the viability, T/C (compound 1 µM) is 38.7% and 46.3% and 39.9%. Moreover, where the note is “compound 3.16 µM”, the viability, T/C is 32.2% and 36.3% and 36.2%. Further, the viability, T/C (compound 10 µM) was 28.1% and 25% and 30.5%.

In the case of `CC1COCCN1c1cc(C2(S(C)(=N)=O)CC2)nc(-c2ccnc3[nH]ccc23)n1` (centres undefined), the IC50 is 3750 nM and > 10000 nM and 1280 nM. Besides, the viability, T/C (compound 0.0316 µM) is 125% and 90% and 99.5%. Also, where the note is “compound 0.1 µM”, the viability, T/C was 92.6% and 98.3% and 102%. Further, where the note is “compound 0.316 µM”, the viability, T/C was 98.3% and 75.8% and 74.6%. Also, for the setting “compound 1 µM”, the viability, T/C was 53.5% and 71.3% and 53.6%. Besides, under “compound 3.16 µM”, the viability, T/C is 51.8% and 48.8% and 44.5%. Further, for the setting “compound 10 µM”, the viability, T/C is 45.6% and 58% and 46.8%.

`CCCS(=O)(=O)Nc1ccc(F)c(C(=O)c2c[nH]c3ncc(-c4ccc(Cl)cc4)cc23)c1F`: the IC50 was > 10000 nM and 7630 nM and 6630 nM. For the same molecule, the viability, T/C (compound 0.0316 µM) was 74.9% and 85.2% and 120%. Moreover, the viability, T/C (compound 0.1 µM) is 89.7% and 99.9% and 114%. The viability, T/C (compound 0.316 µM) was 84.1% and 105% and 81.2%. For the same molecule, the viability, T/C (compound 1 µM) is 96.2% and 106% and 87.5%. Further, under “compound 3.16 µM”, the viability, T/C is 62.4% and 72.5% and 71.5%. Also, the viability, T/C (compound 10 µM) is 50% and 43.1% and 36.3%.

As for `CC[C@@]1(O)C(=O)OCc2c1cc1n(c2=O)Cc2cc3c(CN(C)C)c(O)ccc3nc2-1`, the IC50 was > 100 nM and 94.7 nM. In addition, under “compound 0.000316 µM”, the viability, T/C is 110% and 87.5%. The viability, T/C (compound 0.001 µM) is 96.5% and 89.5%. Moreover, the viability, T/C (compound 0.00316 µM) was 103% and 85.1%. Besides, the viability, T/C (compound 0.01 µM) was 91.3% and 89.6%. Also, the viability, T/C (compound 0.0316 µM) was 60.9% and 63.7%. The viability, T/C (compound 0.1 µM) was 60.2% and 49.3%.

Consider `CCc1c2c(nc3ccc(O)cc13)-c1cc3c(c(=O)n1C2)COC(=O)[C@]3(O)CC`, for which the IC50 was 10.9 nM and 17.3 nM. Also, for the setting “compound 0.00316 µM”, the viability, T/C is 58.4% and 64.9%. In addition, the viability, T/C (compound 0.01 µM) was 50.7% and 50.6%. Moreover, the viability, T/C (compound 0.0316 µM) is 40.2% and 47.8%. The viability, T/C (compound 0.1 µM) was 33.7% and 31.8%. Further, where the note is “compound 0.316 µM”, the viability, T/C is 29.5% and 27.7%. For the same molecule, the viability, T/C (compound 1 µM) was 11.7% and 9.45%.

Consider `CCc1cc2c(N3CCc4c(cc(Cn5ccnc5)cc4-c4cn(C)nc4C(F)(F)F)C3=O)ccnc2c(OC)n1`, for which the IC50 is more than 10000 nM. Also, the viability, T/C (compound 0.0316 µM) was 127% and 103% and 138%. The viability, T/C (compound 0.1 µM) was 115% and 101% and 105%. For the same molecule, the viability, T/C (compound 0.316 µM) is 123% and 106% (2×). Further, under “compound 1 µM”, the viability, T/C was 116% and 126% and 105%. The viability, T/C (compound 3.16 µM) was 116% and 111% and 93.8%. Also, the viability, T/C (compound 10 µM) is 83.1% and 86.1% and 71.5%.
